{"source": "patent US8969294B2", "about": "(Istituto di Recerche di Biologia Molecolare P. Angeletti …, priority 2008, dated 2015)", "key": {"[1]": {"assay": "DIO mice, s.c. daily for seven days (Example 32)", "assay_type": "in vivo", "excerpt": "The acylated glucagon analogs were as follows:"}, "[2]": {"assay": "DIO mice, i.p. once a week for 2 weeks (Example 30)", "assay_type": "in vivo", "settings": "for blood glucose levels in response to a glucose injection: glucose 24 hours after peptide", "experimental": "Changes in body weight of and food intake by the mice were measured 0, 1, 3, 5, 7, 8, 10, 12, and 14 days after injection. Blood glucose levels of the mice were monitored throughout the 14 days. Glucose tolerance tests were performed by injecting a 25% glucose in saline solution 1 hour or 24 hours after administration of the acylated or pegylated peptide and measuring blood glucose levels at −60, 0, 15, 30, 60, or 120 min after the glucose injection."}, "[3]": {"target": "GLP-1 receptor (Homo sapiens, UniProt P43220)", "sequence (P43220 24-463, species assumed)": "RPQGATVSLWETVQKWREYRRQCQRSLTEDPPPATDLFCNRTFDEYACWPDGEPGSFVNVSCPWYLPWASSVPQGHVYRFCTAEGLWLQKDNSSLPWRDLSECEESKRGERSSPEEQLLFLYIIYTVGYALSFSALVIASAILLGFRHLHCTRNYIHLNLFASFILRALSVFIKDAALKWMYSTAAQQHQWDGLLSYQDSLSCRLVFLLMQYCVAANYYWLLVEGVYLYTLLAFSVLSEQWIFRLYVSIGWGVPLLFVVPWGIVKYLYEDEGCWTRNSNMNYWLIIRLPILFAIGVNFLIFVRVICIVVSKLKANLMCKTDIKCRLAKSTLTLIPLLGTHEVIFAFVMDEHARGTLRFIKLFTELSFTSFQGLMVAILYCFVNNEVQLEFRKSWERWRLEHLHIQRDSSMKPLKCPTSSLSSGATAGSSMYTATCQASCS", "assay": "Functional assay, cAMP synthesis: luciferase reporter in HEK293 cells co-transfected with GLP-1 receptor", "quoted_text": "(§1) Peptide absorbance readings were obtained from UV Absorbance measurements at 280 nm on a Genesys 6 Spectrophotometer (Thermo Electron Corporation). Beer's Law was used to calculate solution concentrations based on the number of tryptophan and tyrosine residues in each analog. At the end of the incubation, 100 μL LucLite luminescence substrate reagent was added to each well, the plate sealed and shaken, and placed into a Wallac Trilux luminescence counter for cAMP detection.\n(§2) HEK293 cells were co-transfected with the GcgR or GLP-1R cDNAs and a luciferase reporter gene-linked to a cAMP response element (CRE). […] The plate was incubated for 10 min in the dark and light output was quantified on a MicroBeta1450 liquid scintillation counter (Perkin-Elmer, Wellesley, Mass.)."}, "[4]": {"target": "glucagon receptor (Homo sapiens, UniProt P47871)", "sequence (P47871 26-477)": "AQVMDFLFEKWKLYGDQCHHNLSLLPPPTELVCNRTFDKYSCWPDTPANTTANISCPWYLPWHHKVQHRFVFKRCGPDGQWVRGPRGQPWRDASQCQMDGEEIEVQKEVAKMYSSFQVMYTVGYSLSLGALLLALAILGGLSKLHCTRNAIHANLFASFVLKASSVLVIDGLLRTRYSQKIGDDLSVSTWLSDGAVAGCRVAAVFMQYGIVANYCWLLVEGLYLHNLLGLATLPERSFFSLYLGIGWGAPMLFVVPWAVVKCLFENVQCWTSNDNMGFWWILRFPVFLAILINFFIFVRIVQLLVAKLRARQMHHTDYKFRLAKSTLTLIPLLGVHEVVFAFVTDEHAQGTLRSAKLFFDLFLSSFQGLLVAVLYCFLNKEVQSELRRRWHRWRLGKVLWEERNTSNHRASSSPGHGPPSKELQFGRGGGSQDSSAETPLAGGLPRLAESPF", "assay": "Functional assay, cAMP synthesis: luciferase reporter in HEK293 cells co-transfected with glucagon receptor", "quoted_text": "as §1, §2"}, "[5]": {"assay": "Glucose challenge in DIO mice after i.p. peptide (Examples 24, 25)", "assay_type": "in vivo", "settings": "2, 20, 70 nmol/kg i.p.", "experimental": "Diet-induced obesity (DIO) mice were injected intraperitoneally at the −15 min time point with 0.2, 2, 20, or 70 nmol/kg of one of the following:\nA saline solution comprising 25% (v/v) glucose was injected at a dose of 1.5 g/kg of body weight at the 0 min time point. Blood glucose levels were measured at the −15, 0, 15, 30, 60, and 120 min time points.\nDIO mice were injected intraperitoneally at the −24 hr time point with 70 nmol/kg of one of the following:\nA saline solution comprising 25% (v/v) glucose was injected at a dose of 1.5 g/kg of body weight at the 0 min time point. Blood glucose levels were measured at the 0, 15, 30, 60, and 120 min time points."}, "[6]": {"assay": "Diet-induced obese C57B6 mice, s.c. Peptide X-PEG / Y-PEG (Examples 45-49)", "assay_type": "in vivo", "experimental": "C57BI/6 mice were obtained from Jackson Laboratories and fed a diabetogenic diet from Research Diets, a high sucrose diet with 58% kcal from fat. Mice were single or group-housed on a 12:12-h light-dark cycle at 22° C. with free access to food and water. All studies were approved by and performed according to the guidelines of the Institutional Animal Care and Use Committee of the University of Cincinnati.\nWhole body composition (fat and lean mass) was measured using NMR technology (EchoMRI, Houston, Tex.).\nEnergy intake and expenditure, as well as home-cage activity, were assessed by using a combined indirect calorimetry system (TSE Systems, Bad Homburg, Germany). Oxygen consumption and CO2 production were measured every 45 min for a total of 120 h (including 12 h of adaptation) to determine the respiratory quotient and energy expenditure. Food and water intake and meal patterns were determined continuously for 120 h at the same time as the indirect calorimetry assessments by integration of scales into the sealed cage environment. Meals were defined as food intake events with a minimum duration of 60 s, and a break of 300 s between food intake events. Home-cage locomotor activity was determined using a multidimensional infrared light beam system with beams scanning the bottom and top levels of the cage, and activity being expressed as beam breaks. Stationary motor activity (fidgeting) was defined as consecutive breaks of one single light beam at cage-bottom level, ambulatory movement as breaks of any two different light beams at cage-bottom level, and rearing as simultaneous breaks of light beams on both cage-bottom and the top level.\nBlood was collected after a 6-h fast from tail veins using EDTA-coated Microvette tubes (Sarstedt, Nuremberg, Germany) and immediately chilled on ice. After 15 min of centrifugation at 3,000 g and 4° C., plasma was stored at −80° C. Plasma insulin was quantified by a radioimmunoassay from Linco (Sensitive Rat Insulin RIA; Linco Research, St. Charles, Mo.). Plasma TGs and cholesterol levels were measured by enzymatic assay kits (Thermo Electron, Waltham, Mass.). Samples were analyzed individually with the exception that pooled samples (0.25 ml) from 5 animals/group were subjected to fast-performance liquid chromatography (FPLC) gel filtration on two Superose 6 columns connected in series for lipoprotein separation. All assays were performed according to the manufacturer's instructions.\nFor the determination of glucose tolerance, mice were subjected to 6 h of fasting and injected intraperitoneally (i.p.) with 2 g glucose/kg body wt (50% D-glucose (Sigma) in 0.9% saline) for the glucose tolerance test (GTT). Tail blood glucose levels (mg/dl) were measured by using a hand-held glucometer (TheraSense Freestyle) before (0 min) and at 15, 30, 60, 90, and 120 min after injection.\nThe 40-kd pegylated peptides Peptides X-PEG and Y-PEG were used as single weekly subcutaneous (s.c) injections in diet-induced obese (D10) C57B6 mice.\nLong-term effects of these lower doses on food intake (p=0.95; FIG. 29C) were less impressive than short-term effects with a higher dose (FIG. 27C)."}, "[7]": {"assay": "Diet-induced obese rats, once-a-week injection, 3-week treatment", "assay_type": "in vivo", "settings": "70 nmol/kg/week, 3 weeks", "experimental": "To determine if the principal phenomenon generalizes across species, both compounds were administered to diet-induced obese rats (mean weight 777.4+/−2.1 g, dose 70 nmol/kg/week, once-a-week injection, 3-week treatment)."}, "[8]": {"assay": "GLP-1 receptor knock out (GLP-1R−/−) mice on high-fat diet, one month", "assay_type": "in vivo"}, "[9]": {"assay": "Circular dichroism, percent helicity"}}, "note": "Square brackets hold non-standard residues; d marks the D form. Ends that are not written are not given here. Aib = CC(C)(N)C(=O)O", "data": [{"molecule": "γE-γE-C16 Glucagon Amide: C16 Glucagon Amide with C16 attached to Lys10 through gamma-Glu-gamma-Glu dipeptide spacer", "values": [{"measurement": "fat mass on Day 7", "setting": "[1]; 100 nmol/kg", "value": "lowest fat mass"}, {"measurement": "ability to cause weight loss", "setting": "[1]; 30 or 100 nmol/kg daily s.c.", "value": "greatest ability to cause weight loss"}, {"measurement": "decrease of blood glucose levels", "setting": "[1]; higher dose", "value": "worked as well as Liraglutide"}]}, {"molecule": "Peptide A K^10—C14: Peptide A of Example 20 with Lys10 acylated with a C14 fatty acid chain (H[Aib]QGTFTSDK(C14 fatty acid)SKYLDEQAAKEFIC(PEG 40 kDa)WLMNT-NH2)", "values": [{"measurement": "total body weight", "setting": "[2]; 40 or 80 nmol/kg, 14 days", "value": "reduced as compared to mice injected with the vehicle control"}, {"measurement": "blood glucose levels in response to a glucose injection", "setting": "[2]", "value": "lowered in comparison to vehicle control"}]}, {"molecule": "CSCC[C@H](NC(=O)[C@H](CC(C)C)NC(=O)[C@H](Cc1c[nH]c2ccccc12)NC(=O)[C@H](CCC(N)=O)NC(=O)[C@@H](NC(=O)[C@H](Cc1ccccc1)NC(=O)[C@H](CC(=O)O)NC(=O)[C@H](CCCCN)NC(=O)[C@H](C)NC(=O)[C@H](CCCNC(=N)N)NC(=O)[C@H](CCCNC(=N)N)NC(=O)[C@H](CCC(=O)O)NC(=O)[C@H](CC(=O)O)NC(=O)[C@H](CC(C)C)NC(=O)[C@H](Cc1ccc(O)cc1)NC(=O)[C@H](CCCCN)NC(=O)[C@H](CO)NC(=O)[C@H](Cc1ccc(O)cc1)NC(=O)[C@H](CC(=O)O)NC(=O)[C@H](CO)NC(=O)[C@@H](NC(=O)[C@H](Cc1ccccc1)NC(=O)[C@@H](NC(=O)CNC(=O)[C@H](CCC(N)=O)NC(=O)[C@H](CO)NC(=O)[C@@H](N)Cc1c[nH]cn1)[C@@H](C)O)[C@@H](C)O)C(C)C)C(=O)N[C@@H](CC(N)=O)C(=O)N[C@H](C(N)=O)[C@@H](C)O", "note": "[E16, K20 Gluc-NH2, HSQGTFTSDYSKYLDERRAKDFVQW LMNTa]", "values": [{"measurement": "Percent Potency Relative to Native Ligand, GLP-1Rec", "setting": "[3]; Table 5", "value": 41.5, "unit": "%"}, {"measurement": "Percent Potency Relative to Native Ligand, GLP-1Rec", "setting": "[3]; Table 9", "value": 41.5, "unit": "%"}, {"measurement": "EC50", "setting": "[4]; EC50, Glucagon Receptor, Table 13", "value": 0.18, "unit": "nM"}, {"measurement": "EC50", "setting": "[4]; EC50 at Glucagon Receptor, Table 17", "value": 0.203, "unit": "nM"}, {"measurement": "Percent Potency Relative to Native Ligand, GRec", "setting": "[4]; Table 5", "value": 130.1, "unit": "%"}, {"measurement": "Percent Potency Relative to Native Ligand, GRec", "setting": "[4]; Table 9", "value": 130.1, "unit": "%"}]}, {"molecule": "Peptide A K^10—C8: Chimera 2 with AIB2, Lys10 acylated with C8 fatty acid, Cys24 40K PEG (H[Aib]QGTFTSDK(C8 fatty acid)SKYLDEQAAKEFIC(PEG 40 kDa)WLMNT-NH2)", "values": [{"measurement": "ability to lower blood glucose, glucose challenge 15 min after peptide", "setting": "[5]", "value": "greatest ability to lower blood glucose"}, {"measurement": "blood glucose levels in response to a glucose injection", "setting": "[2]", "value": "lowered in comparison to vehicle control"}]}, {"molecule": "H(Aib)QGTFTSDYSKYLDEQAAKEFICWLMNT-amide [Peptide Y-PEG]", "values": [{"measurement": "total cholesterol", "setting": "[6]; 70 nmol/kg s.c. Days 0 and 7, evaluated Day 9", "value": 63.0, "unit": "mg/dL"}, {"measurement": "blood glucose profile (AUC), i.p. glucose challenge", "setting": "[6]; Day 3", "value": "14183±1072"}, {"measurement": "Blood glucose levels, mean decrease", "setting": "[6]; weekly s.c. 70 nmol/kg, from Day 3", "value": "−32", "unit": "%"}, {"measurement": "decrease in body weight", "setting": "[6]; weekly s.c. 70 nmol/kg, one month", "value": 28.1, "unit": "%"}, {"measurement": "change in body weight", "setting": "[7]", "value": "−20.58+/−2.26%"}, {"measurement": "change in fat mass", "setting": "[7]", "value": "−33.76+/−4.76%"}, {"measurement": "body weight", "setting": "[8]", "value": "significant decrease in body weight"}, {"measurement": "fat mass", "setting": "[8]", "value": "significant decrease"}]}, {"molecule": "GLP-1", "values": [{"measurement": "Percent Helicity, 0% TFE", "setting": "[9]; 10 mM phosphate buffer pH 5.9, 0% TFE", "value": 14, "unit": "%"}, {"measurement": "Percent Helicity, 10% TFE", "setting": "[9]; 10% TFE", "value": 29, "unit": "%"}, {"measurement": "Percent Helicity, 20% TFE", "setting": "[9]; 20% TFE", "value": 55, "unit": "%"}]}, {"molecule": "CCCCCCCCCCCCCC(=O)NCCCC[C@H](NC(=O)[C@H](CC(=O)O)NC(=O)[C@H](CO)NC(=O)[C@@H](NC(=O)[C@H](Cc1ccccc1)NC(=O)[C@@H](NC(=O)CNC(=O)[C@H](CCC(N)=O)NC(=O)[C@H](CO)NC(=O)C(C)(C)c1c[nH]cn1)[C@@H](C)O)[C@@H](C)O)C(=O)N[C@@H](CO)C(=O)N[C@@H](CCCCN)C(=O)N[C@@H](Cc1ccc(O)cc1)C(=O)N[C@@H](CC(C)C)C(=O)N[C@@H](CC(=O)O)C(=O)N[C@H]1CCC(=O)NCCCC[C@@H](C(=O)N[C@@H](CC(=O)O)C(=O)N[C@@H](Cc2ccccc2)C(=O)N[C@H](C(=O)N[C@@H](CCC(N)=O)C(=O)N[C@@H](Cc2c[nH]c3ccccc23)C(=O)N[C@@H](CC(C)C)C(=O)N[C@@H](CCSC)C(=O)N[C@@H](CC(N)=O)C(=O)N[C@H](C(N)=O)[C@@H](C)O)C(C)C)NC(=O)[C@H](C)NC(=O)[C@H](CCCNC(=N)N)NC(=O)[C@H](CCCNC(=N)N)NC1=O", "note": "[DMIA1, K10(C14), [E16/K20]-Gluc Amide]", "values": [{"measurement": "% Activity of GLP-1", "setting": "[3]", "value": 30, "unit": "%"}, {"measurement": "% Activity of Glucagon", "setting": "[4]; Table 21", "value": 203.7, "unit": "%"}]}]}
